Test results taken from ChEMBL document CHEMBL4725416, “Structure-Based Discovery of Novel Ligands for the Orexin 2 Receptor” (J Med Chem, 2020).
The source made the active and inactive calls. No rule for the calls is given here.

Columns and labels:
Assay type in all cases: cell-based
[1] = (§1) Displacement of [3H]-EMPA from human orexin 2 receptor expressed in CHO cells incubated for 2 hrs by whole cell radioligand binding assay; conditions: for IC50: CHO
[2] = biological target: T1, Orexin/Hypocretin receptor type 1 (Homo sapiens, UniProt O43613); experiment: (§2) Displacement of [3H]-[…] from human orexin 1 receptor expressed in CHO cells incubated for 2 hrs by whole cell radioligand binding assay
T1 sequence (O43613 whole entry): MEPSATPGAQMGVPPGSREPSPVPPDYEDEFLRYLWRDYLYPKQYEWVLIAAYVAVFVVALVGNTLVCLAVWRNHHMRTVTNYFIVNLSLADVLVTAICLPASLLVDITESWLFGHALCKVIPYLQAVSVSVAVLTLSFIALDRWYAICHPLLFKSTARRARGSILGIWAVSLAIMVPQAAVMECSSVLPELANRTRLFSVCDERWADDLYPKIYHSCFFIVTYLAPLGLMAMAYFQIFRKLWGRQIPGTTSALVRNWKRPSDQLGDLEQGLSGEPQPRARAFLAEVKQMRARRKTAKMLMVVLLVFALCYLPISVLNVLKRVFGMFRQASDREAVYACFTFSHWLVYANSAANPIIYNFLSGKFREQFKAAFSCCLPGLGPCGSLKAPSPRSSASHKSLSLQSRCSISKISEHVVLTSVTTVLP

[3] = species: Homo sapiens; experiment: as §1
[4] = biological target: T2, Orexin/Hypocretin receptor type 1 (Homo sapiens) (UniProt O43613); experiment: as §2
T2 sequence (whole entry): T1 sequence (O43613 whole entry)

Compound | pKi [3] | pKi [4] | IC50 [1] | IC50 [2] | further results
Cc1cccc(C)c1NC(=O)CCCN1C(=O)c2cccnc2C1=O |  |  |  |  | pKi [1]: 4.56; Ki [2]: 33.9 µM
COc1cc2cc(C(=O)N3CCN(Cc4ccc5c(c4)OCO5)CC3)c(=O)oc2cc1OC | inactive | inactive |  |  | 
O=C(OCC(=O)N1N=C(c2ccc(Cl)cc2)C[C@H]1c1ccco1)c1ccc(-n2cccn2)nc1 | inactive | inactive |  |  | 
CC1(C)OC[C@H](NC(=O)Nc2ccc(Br)cc2Br)[C@H](c2ccccc2)O1 |  |  |  |  | pKi [1]: 8.18; Ki [2]: 1.35 µM
COc1cc(=O)n2c(c1C(=O)N(C)[C@H](C)c1ccco1)CCN(C(=O)C1(c3ccccc3)CC1)CC2 |  |  | > 100 µM | > 100 µM | 
O=C1N=C(O)/C(=C\c2ccccc2OCc2ccccc2F)C(=O)N1c1ccc2c(c1)OCO2 |  |  |  | > 100 µM | 
Cc1ccc2c(C)c(C(=O)N3CCN(Cc4ccccn4)CC3)oc2c1C |  |  | > 100 µM | > 100 µM | 
Fc1ccccc1COc1cccc(CNCc2ccccn2)c1 |  |  |  | > 100 µM | pKi [1]: 4.28
COc1ccc(CN2C(=O)c3ccccc3C2=O)cc1C(=O)OCc1cc(=O)n2ccsc2n1 | inactive | inactive |  |  | 
COc1cccc(COc2ccc(-c3noc(-c4ccco4)n3)cc2OC)c1 | inactive | inactive |  |  | 
O=C(c1ccccc1)[C@H]1CCCN(C(=O)CCc2nc(-c3ccco3)no2)C1 |  |  |  | > 100 µM | 
O=S(=O)(c1cc(F)cc(F)c1)N1CCN(Cc2csc(-c3ccco3)n2)CC1 |  |  | > 100 µM | > 100 µM | 
N[C@H]1C[C@@H](C(=O)O)N(C(=O)c2ccccc2OCc2ccccc2)C1 | inactive | inactive |  |  | 
COc1cccc(C(=O)COc2ccc3c(C)c(C)c(=O)oc3c2)c1 | inactive | inactive |  |  | 
Cc1noc(CN2CCN(C(=O)c3cc4ccccn4c3)CC2)n1 | inactive | inactive |  |  | 
O=C(c1cc(S(=O)(=O)N2CCOCC2)ccc1Cl)N1CCn2c1nc1ccccc12 |  |  | > 100 µM | > 100 µM | 
O=C1c2oc3ccc(Cl)cc3c(=O)c2[C@H](c2cccc([N+](=O)[O-])c2)N1Cc1ccccc1 | inactive | inactive |  |  | 
CCN(Cc1cccnc1)C(=O)CN(c1ccc(OC)nc1)S(=O)(=O)c1ccccc1C |  |  |  |  | pKi [1]: 8.17
O=C(CCc1nc(-c2ccccn2)no1)OCc1ccccn1 | inactive | inactive |  |  | 
COc1cc([C@H]2c3c(oc4ccc(Cl)cc4c3=O)C(=O)N2Cc2ccccc2)ccc1O | inactive | inactive |  |  | 
O=C1CCCN1c1cccc(C(=O)N(Cc2ccc(F)cc2)C2CC2)c1 |  |  | > 100 µM |  | 
CCOC(=O)c1cc(C(=O)N[C@@H](C)c2ccccc2)c(C)[nH]c1=O | inactive | inactive |  |  | 
CN(Cc1[nH]cc[n+]1Cc1ccccc1)C(=O)c1cccc2cc[nH][n+]12 |  |  | > 100 µM |  | 
Cc1cc(C(C)(C)C)cc(C)c1Cn1cnc2c1c(=O)n(C)c(=O)n2C | inactive | inactive |  |  | 
Cc1ccc(C(=O)[C@H](C)Oc2cccc(N3C(=O)C4C5C=CC(C5)C4C3=O)c2)cc1 (stereo partly drawn) |  |  | > 100 µM | > 100 µM | 
Cc1ccc([C@H](CCO)n2cc(-c3ccnc4ccccc34)nn2)cc1 |  |  | > 100 µM | > 100 µM | 

Compound | pKi [3] | pKi [4] | IC50 [1] | IC50 [2] | further results
O=C(c1ccc(OCc2cn3ccccc3n2)cc1)N1CCC[C@@H]1c1ccc2c(c1)OCCO2 |  |  | > 100 µM | > 100 µM | 
C[C@H](Cc1cnccn1)n1cc(-c2ccnc3ccccc23)nn1 | inactive | inactive |  |  | 
Cc1nc(-c2ncccn2)sc1C(=O)OCCn1c(C)nc2ccccc21 |  |  | > 100 µM |  | 
O=C(CCCn1nnc2ccccc2c1=O)NCc1ccccn1 | inactive | inactive |  |  | 
Cc1ccc(C)c(OCC(=O)Oc2ccc3c(C)cc(=O)oc3c2)c1 | inactive | inactive |  |  | 
N[C@H]1CCCN(C(=O)c2cc(-c3ccccc3)nc3ccccc23)CC1 | inactive | inactive |  |  | 
CN(CCc1cccc2ccccc12)C(=O)c1c[nH]c(=O)c(Cl)c1 |  |  |  |  | pKi [1]: 4.89; Ki [2]: 14.8 µM
Cc1nc(-c2ccc(Cl)c(S(=O)(=O)N3CCC[C@@H](C(=O)N4CCc5ccccc54)C3)c2)no1 |  |  | > 100 µM | > 100 µM | 
Cn1c(-c2ccccc2)c(C(=O)COC(=O)c2ccc3c(=O)n4c(nc3c2)CCC4)c2ccccc21 | inactive |  |  | > 100 µM | 
Cc1nc(C(=O)N2CCC[C@H]2Cc2nnc(-c3ccccc3)o2)c(-c2ccccc2F)s1 |  |  |  |  | pKi [1]: 6.7; Ki [2]: 0.00389 µM
CN(Cc1[nH]cc[n+]1C)C(=O)C[C@H]1CN(Cc2ccccc2)CCO1 | inactive |  |  | > 100 µM | 
Cc1nn(-c2ccccc2)c(N2CCCC2)c1/C=N/n1cnc2c(cnn2-c2ccccc2)c1=O |  |  | > 100 µM | > 100 µM | 
Cc1ccc(C(=O)Oc2ccc(N3C(=O)[C@H]4C5C=CC(C6CC65)[C@@H]4C3=O)cc2)cc1 (stereo partly drawn) | inactive | inactive |  |  | 
Cc1ccc2c(c1)C(=O)N(CCC(=O)N1CCCc3ccccc31)C2=O | inactive | inactive |  |  | 
O=C1c2ccccc2C(=O)N1CCc1nc(-c2cnccn2)no1 |  |  | > 100 µM |  | 
CCOc1ccc(-c2n[nH]c3c2[C@H](c2ccccc2OC)NC3=O)cc1 | inactive | inactive |  |  | 
O=C(c1ccc(N2C(=O)CCC2=O)cc1)N1CCN(Cc2nc(C3CC3)cs2)CC1 | inactive | inactive |  |  | 
O=C1c2ccc([N+](=O)[O-])cc2C(=O)N1c1cccc(-c2nc3ccccc3c(=O)o2)c1 | inactive | inactive |  |  | 
Cc1nc(COc2ccc(C(=O)N3CCC[C@@H]3c3ccc4c(c3)OCCO4)cc2)cs1 |  |  |  | > 100 µM | 
CCc1cc2c(=O)c(-c3ccc4c(c3)OCCCO4)coc2cc1OC(=O)N1CCOCC1 | inactive | inactive |  |  | 
C[C@H](NC(=O)[C@H]1CC(=O)N(c2ccc3c(c2)CCC3)C1)c1cccnc1 | inactive | inactive |  |  | 
O=C(CCC(=O)c1ccc2c(c1)OCCO2)Nc1cccc(C#Cc2ccccn2)c1 |  |  | > 100 µM | > 100 µM | 
O=C1/C(=C/c2ccc(N3CCOCC3)cc2)c2ccccc2N1c1ccccc1 |  |  |  |  | Ki [2]: 17.8 µM
Cc1ccc(-n2nccn2)c(C(=O)N2CCN(c3nc4cc(Cl)ccc4o3)CC[C@H]2C)c1 [SUVOREXANT] |  |  |  |  | pKi [1]: 8.53
Cn1ccc2c(C(=O)N3CCN(Cc4cscn4)CC3)cccc21 | inactive | inactive |  |  | 
CN(Cc1[nH]cc[n+]1C)C(=O)CCCc1c[nH]c2ccccc12 |  |  | > 100 µM |  | 

Compound | pKi [3] | pKi [4] | IC50 [1] | IC50 [2] | further results
COc1ccc2c(c1)c(CC(=O)NCc1ccccn1)c(C)n2C(=O)c1ccc(Cl)cc1 |  |  | > 5 µM | > 5 µM | 
c1ccc(-c2n[nH]cc2-c2nc3c(cnn3Cc3ccncc3)[nH]2)cc1 |  |  |  |  | pKi [1]: 4.82; Ki [2]: 24.5 µM
CN(C)S(=O)(=O)c1cccc(C(=O)N(CCc2ccccc2)c2nc3ccccc3s2)c1 |  |  | > 100 µM |  | 
Cc1ccc(C(=O)N2CCN(Cc3nnc(-c4ccco4)o3)CC2)cc1F |  |  | > 100 µM |  | 
O=C(c1cnc(-c2ccccc2)s1)N1CCC[C@H]1c1ccncc1 |  |  | > 100 µM | > 100 µM | 
COc1cccc(-c2nc([C@@H]3CC(=O)N(Cc4ccccc4)C3)no2)c1 |  |  | > 100 µM | > 100 µM | 
CC(=O)N1N=C(c2cn(C(C)=O)c3ccccc23)O[C@@H]1c1cccnc1 |  |  | > 100 µM | > 100 µM | 
Cc1nc(/C=C/C(=O)Oc2ccc3c(=O)c(-c4c(F)cccc4Cl)c(C)oc3c2)cs1 |  |  | > 100 µM | > 100 µM | 
O=S(=O)(c1ccc2c(c1)OCCO2)N1CCN(Cc2nc(-c3ccco3)cs2)CC1 | inactive |  |  | > 100 µM | 
O=C(c1cc2c(s1)-c1ccccc1CC2)N1CCN(Cc2cc(=O)n3ccsc3n2)CC1 |  |  | > 100 µM | > 100 µM | 
COc1cccc(-c2nc(C(=O)OCc3cccnc3)c(C)[nH]2)c1 |  |  |  |  | pKi [1]: 4.64; Ki [2]: 14.8 µM
O=C(Cc1ccc(Cl)cc1)N1CCC(c2noc(-c3ccccn3)n2)CC1 |  |  | > 100 µM |  | 
O=C(CCCn1nnc2ccccc2c1=O)NC1Cc2ccccc2C1 |  |  |  | > 100 µM | pKi [1]: 4.4
O=C1Nc2cc(C(=O)N3CCN(Cc4ccc5c(c4)OCO5)CC3)ccc2N2CCCC[C@@H]12 |  |  | > 100 µM | > 100 µM | 
CCC(=O)N1CCCN([C@@H](C)C(=O)Nc2ccccc2C(C)=O)CC1 |  |  | > 100 µM |  | 
COc1cccc(CN2CC3(CCN(Cc4nccs4)CC3)CC2=O)c1 |  |  | > 100 µM |  | 
O=C(/C=C/c1cccc(F)c1)N1CCOc2c(cc(-c3cccnc3)cc2OC[C@H]2CCCCO2)C1 |  |  | > 100 µM |  | 
Cc1nc(-c2cc(C)n(CC(=O)N3CCC[C@H]3c3ccncc3)c2C)cs1 |  | inactive |  |  | 
COc1ccc2cc(CN(C)C(=O)COC(=O)c3c(F)cccc3F)ccc2c1 |  |  |  | > 100 µM | 
COc1cc(=O)n2c(c1C(=O)N(C)Cc1nonc1C)CCN(C(=O)C1(c3ccccc3)CC1)CC2 |  |  | > 100 µM | > 100 µM | 
C[C@@H]1CN(c2cccc(Cl)c2)C(=O)CN1C(=O)c1cccc2ccccc12 |  |  | > 100 µM | > 100 µM | 
CN1C(=O)c2ccc(C(=O)OCCCn3c(=O)[nH]c4ccccc43)cc2C1=O |  |  | > 100 µM | > 100 µM | 
Cc1[nH]c2ccc(C(=O)N3CCN(Cc4ccc5c(c4)OCO5)CC3)cc2c1C |  |  | > 100 µM | > 100 µM | 
Cc1cc([C@@H]2CCCCN2C(=O)c2ccc(-c3cc[nH]n3)cc2)no1 |  |  | > 100 µM | > 100 µM | 
